Measured values taken from patent US5804576A, “Derivatives of 5-androsten-17-ones and 5-androstan-17-ones” (Research Corporation Technologies, Inc., priority 1986, dated 1998).
“And” between values parts separate entries of the source, which are not always exact repeats. Identical values can stand only once. “Also recorded” adds a separate entry of the source. Like-named read-outs stand apart in the source and are kept apart here.

Assays:
[1] = Anti-obesity test (body weight, food consumption); format: in vivo, mouse (male A/J); details: for mean weekly weight / mean weekly weight ± S.D.: n = 5; for mean weekly weight ± S.D.: 0.36% of diet; for weekly weight (Table 13): 0.54% in food
How it was run: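 Male A/J mice, 5 weeks old on arrival, housed 5 per cage at 24 °C on a 12 h light/dark cycle, were given steroid in chow from one week after arrival; dietary concentrations were varied, or 0.54% or 0.36%. Body weight and food consumption (food added minus remaining) were recorded weekly.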

[2] = test system: TPA (Tumor Promoter) Stimulation of Mouse Epidermal DNA; assay: Inhibition of TPA stimulation of mouse epidermal DNA synthesis (3H-thymidine incorporation), oral; format: in vivo, mouse (ICR male)
How it was run: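 Shaved male ICR mice (7-9 weeks) got steroid orally in sesame oil (0.5 ml/mouse), then topical TPA (10 μg in acetone) 1 h later. After 20 h, i.p. 60 μCi ³H-thymidine 20 min before sacrifice; epidermal DNA labelling expressed as cpm per μg DNA (diphenylamine assay).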

rat uterus = assay: Uterotrophic test for estrogenic activity, oral; format: in vivo; details: for Mean Uterine Weight: 3 days, n = 6; for estrogenic activity (in words): rat uterotrophic test
Text: Uterotrophic Test for Estrogenic Activity. Compound 16 vs. DHEA and Estradiol-benzoate. Compounds Given by Oral Administration.
Twenty-two day old rats were obtained from Charles River Laboratories. Animals were used at 29 days of age. Test steroids were suspended by homogenization in sesame oil. Rats were orally intubated at 1-2 P.M. for 3 days with a test steroid in sesame oil or with sesame oil alone (control). On the 4th day the animals were killed and the uteri were removed and weighed.

[3] = test system: seminal vesicles plus prostate glands; assay: Androgenic and anti-androgenic activity (seminal vesicle plus prostate weight); format: in vivo, mouse (male A/J); details: for Mean Seminal Vesicle plus Prostate Weight ± S.D.: 4 weeks; for androgenic / anti-androgenic effect, seminal vesicle plus prostate weight (in words): diet, male A/J mice
Procedure: Male A/J mice (5 weeks old) were obtained from the Jackson Laboratory and were housed in polycarbonate cages (5 mice/cage) in animal quarters maintained at 24°±1° C. with 12 hours of light and 12 hours of darkness each day. One week after arrival, mice were placed on a chow diet containing either 0.18% or 0.09% 16 or without steroid. Mice were weighed weekly. After 4 weeks, the mice were killed, and the seminal vesicles plus prostate glands were dissected out and weighed.
(a) Male A/J mice (5 weeks old) were obtained from the Jackson Laboratory and were housed in polycarbonate cages (5 mice/cage) in animal quarters maintained at 24°[…] C. with 12 hours of light and 12 hours of darkness each day. One week after arrival, the mice were placed on a chow diet containing one of the test compounds of the present invention at 0.36%. After 4 weeks of treatment, the above mice were killed, and the seminal vesicles and prostate glands were dissected out and weighed.

[4] = test system: DMBA produced papillomas and carcinomas; details: topical; cited from earlier work

Row | SMILES | mean weekly weight ([1]; 0.18% of diet, week 0) | mean weekly weight ([1]; 0.18% of diet, week 1) | mean weekly weight ([1]; 0.18% of diet, week 2) | mean weekly weight ([1]; 0.18% of diet, week 3) | mean weekly weight ([1]; 0.18% of diet, week 4) | mean weekly weight ([1]; 0.35% of diet, week 0) | mean weekly weight ([1]; 0.35% of diet, week 1) | mean weekly weight ([1]; 0.35% of diet, week 2) | mean weekly weight ([1]; 0.35% of diet, week 3) | mean weekly weight ([1]; 0.35% of diet, week 4) | mean weekly weight ± S.D. ([1]; week 0) | mean weekly weight ± S.D. ([1]; week 1) | mean weekly weight ± S.D. ([1]; week 2) | Mean Uterine Weight (rat uterus; 400 mg/kg oral) | estrogenic activity (in words) (rat uterus) | Mean Seminal Vesicle plus Prostate Weight ± S.D. ([3]; 0.36% of diet, n = 5) | androgenic / anti-androgenic effect, seminal vesicle plus prostate weight (in words) [3] | inhibition of DMBA produced papillomas and carcinomas (in words) [4] | further results
1 | C[C@]12CC[C@H](O)CC1=CC[C@@H]1[C@@H]2CC[C@]2(C)C(=O)CC[C@@H]12 [DHEA, 3β-Hydroxy-5-androst-en-17-one, reference compound] | 22.4 ± 1.8 grams | 20.4 ± 1.9 grams | 21.1 ± 0.5 grams | 22.4 ± 0.8 grams | 23.6 ± 1.5 grams | 21.8 ± 2.2 grams and 22.4 ± 2.3 grams | 20.0 ± 2.3 grams and 16.0 ± 1.6 grams | 19.2 ± 1.8 grams and 20.2 ± 0.9 grams | 19.6 ± 2.8 grams and 21.0 ± 0.8 grams | 22.2 ± 2.4 grams and 22.2 ± 0.9 grams | 23.2 ± 1.3 grams | 21.8 ± 1.0 grams | 20.8 ± 1.0 grams | 261 ± 23 Mgs | significantly estrogenic | 6.5 ± 1.2 mg/100 gm body weight | significantly reduced seminal vesical plus prostate gland weight | inhibits DMBA produced papillomas and carcinomas | mean weekly weight ([1]; 0.35% of diet, week 5): 21.8 ± 2.2 grams; mean weekly weight ([1]; 0.35% of diet, week 7): 23.2 ± 2.4 grams; anti-weight effect (in words) ([1]; 400 mg/kg repeated (DHEA), cancer preventive dosages (19, 20)): produces an anti-weight effect; weekly weight (Table 13) ([1]; week 0): 21.2 ± 1.4; weekly weight (Table 13) ([1]; week 1): 16.8 ± 1.6; weekly weight (Table 13) ([1]; week 2): 16.7 ± 2.0; weekly weight (Table 13) ([1]; week 3): 18.8 ± 1.1; weekly weight (Table 13) ([1]; week 4): 19.0 ± 2.0; weekly weight (Table 13) ([1]; week 5): 19.6 ± 2.8; mean weekly weight ([1]; 0.7% of diet, week 0): 21.1 ± 2.8 grams and 22.0 ± 2.5 grams; mean weekly weight ([1]; 0.7% of diet, week 1): 15.2 ± 1.8 grams and 17.0 ± 1.9 grams; mean weekly weight ([1]; 0.7% of diet, week 2): 17.0 ± 2.0 grams and 17.8 ± 1.8 grams; mean weekly weight ([1]; 0.7% of diet, week 3): 17.8 ± 1.1 grams and 18.4 ± 1.8 grams; mean weekly weight ([1]; 0.7% of diet, week 4): 18.8 ± 1.1 grams and 19.2 ± 1.6 grams; mean weekly weight ([1]; 0.7% of diet, week 5): 18.2 ± 1.3 grams and 20.2 ± 1.9 grams; mean weekly weight ([1]; 0.7% of diet, week 6): 19.8 ± 2.0 grams; Anti-obesity Activity relative to DHEA ([1]; Table 14, DHEA = 1×): 1 ×; blocking the TPA stimulation in DNA synthesis rate (in words) ([2]; 200 mg/kg or 100 mg/kg oral): not at 200 mg/kg or 100 mg/kg; blocking the TPA stimulation in DNA synthesis rate (in words) ([2]; 400 mg/kg oral): active at blocking the TPA stimulation in DNA synthesis rate at 400 mg/kg; TPA stimulation in 3H-thymidine incorporation (in words) ([2]; oral, single administration): does not inhibit the TPA stimulation in epidermal ^3 H-thymidine incorporation to a degree comparable; also recorded: inactive
2 | C[C@H]1CC[C@@]2(C)C(=CC[C@@H]3[C@@H]2CC[C@]2(C)C(=O)CC[C@@H]32)C1 [Compound 16, 3β-methyl-5-androsten-17-one] | 22.6 ± 2.7 grams | 19.8 ± 2.3 grams | 19.4 ± 2.1 grams | 19.4 ± 2.1 grams | 19.6 ± 2.2 grams | 22.0 ± 2.5 grams | 16.8 ± 1.6 grams | 18.2 ± 0.8 grams | 17.2 ± 1.7 grams | 17.0 ± 1.2 grams | 23.3 ± 2.5 grams | 18 ± 1.5 grams | 17.1 ± 1.6 grams | 174 ± 20 Mgs | Neither compounds 16 nor 2 are estrogenic; also recorded: devoid of estrogenic activity in the rat uterotrophic test | 3.0 ± 0.3 mg/100 gm body weight | significantly reduced the weight of the seminal vesicles and prostate glands; also recorded: significantly reduced the seminal vesicle plus prostate gland weight | inhibits DMBA produced papillomas and carcinomas | Anti-obesity Activity relative to DHEA [1]: more than 2 X; activity relative to DHEA (TPA stimulation of epidermal DNA synthesis) ([2]; oral dose-response, as active as DHEA): about 3 X; Mean Uterine Weight (rat uterus; 200 mg/kg oral): 189 ± 14 Mgs; estrogenic activity (in words) (rat uterus; listed as compound 16): without any apparent estrogenic effect; Mean Seminal Vesicle plus Prostate Weight ± S.D. ([3]; 0.09% of diet, n = 6): 4.0 ± 0.7 mg/100 gm body weight; Mean Seminal Vesicle plus Prostate Weight ± S.D. ([3]; 0.18% of diet, n = 6): 3.4 ± 0.11 mg/100 gm body weight; androgenic / anti-androgenic effect, seminal vesicle plus prostate weight (in words) ([3]; listed as Cmpd. 16): significantly reduced seminal vesicle plus prostate weight
